Source: US20250177412A1, “SMALL-MOLECULE INHIBITORS TARGETING THE BOB1/OCT1 INTERFACE” (NANTES UNIVERSITE, priority 2022, published 2025)

Tests used:
[1] = test system: BOB1/OCT1-mediated transcription; test: Luciferase reporter assay (transient transfection, 6xPORE-luc); type: cell-based, human
Procedure: FIGS. 1A-C are a combination of graphs showing that compound 005 inhibits BOB1/OCT1-mediated transcription in vitro. HEC293Ea1 cells, known to express endogenous OCT1, were co-transfected with […] reporter, pEV-OBF1 (BOB1) effector, and pCMV-β-gal calibrator plasmids. Luciferase and β-galactosidase activities were measured 48 hours after transfection. The 100% luciferase activity was set as activity in presence of vehicle (10 μM DMSO). […] All experiments are performed at least in triplicates. Bars indicate the mean±SEM. * P<0.05, ** P<0.01, *** P<0.001, **** P<0.0001.
The HEK293E1a cells were seeded at density 1.2×10^4 per well on 48-well plate in DMEM medium containing 10% fetal calf serum. After 24 hours cells were transfected with plasmid mix (300 ng/well) containing specified amounts of the p6×PORE-luc reporter, pEV-OBF1 and pCG-Oct1 effector, pBluescript II KS+ carrier, and pCMV-βgal (for standardization) as previously described. The transfections were carried out in three biological replicates, using Polyethylenimine (PEI 25K, Polysciences Inc.) at the ratio 2:1 to DNA. After 48 hours, cells were washed with PBS, lysed, and measured for luciferase activity, using the Bright-Glo luciferase assay system (Promega), and for β-galactosidase activity in a standard assay.
BOB1 has been described as a coactivator acting in cooperation with the POU-domain proteins OCT1 and OCT2 bound to distinct DNA-motifs either in monomeric or dimeric configurations. […] As an initial functional assay, we examined the ability of the compounds according to the present invention to affect BOB1-OCT1-PORE-mediated transcriptional activation in transient transfection luciferase assay. To this end, we made use of previously generated 6×PORE-luc and reporter plasmid, in which hexamers of the PORE were cloned upstream of the thymidine kinase (tk) minimal promoter and luciferase gene. […] Furthermore, the addition of a plasmid expressing exogenous OCT1 exerted an inhibitory effect on both basal and BOB1-mediated transcription (data not shown). This observation is likely due to the fact that HEK293 cells, like all other mammalian cell types, express OCT1, and further addition of exogenous OCT1 in these cells shifts the BOB1/OCT1 equilibrium out of optimal range, resulting in squelching effect, and in our experimental setup, in about 3-fold stimulation, as compared to that by endogenous OCT1 alone (FIG. 1A). […] Compound 005 was selected for further detailed investigation.

CD4+CD25- T cells = test: Anti-CD3/CD28-induced T-cell proliferation (CPD); type: cell-based; settings: Homo sapiens, 72 h, 3 days
Procedure: FIGS. 7A-P are a combination of graphs and FACS plots showing that targeting the BOB1-OCT(s) interaction by compound 005 inhibits dose-dependently T-cell proliferation and selectively suppresses memory Th17 responses. Representative offset histogram overlays showing median fluorescence intensity of cell proliferation dye (CPD) in anti-CD3/CD28-activated CD4^+CD25^− T cells cultured without BOB1 inhibitor (DMSO-treated control) or in the presence of 5, 10 or 15 μM compound 005, as indicated (FIG. 7A). The percentage of proliferating cells is indicated for one representative donor. […] FIG. 7C-O show the expression of Th1-(IFNG (FIG. 7C), TNF (FIG. 7D), IL-2 (FIG. 7E) and TBX21 (FIG. 7F)), Th2-(IL-4 (FIG. 7G) and GATA3 (FIG. 7H)), Th17-(IL-17A (FIG. 7I), IL-17F (FIG. 7J), IL-21 (FIG. 7K), IL-22 (FIG. 7L) and RORC (FIG. 7M)), and Treg-(IL-10 (FIG. 7N) and FOXP3 (FIG. 7O)) associated cytokines and transcription factors during recall (memory) T cell responses in vitro. […] Each dot represents a biological replicate. Bars indicate the mean±SD. * P<0.05, ** P<0.01, **** P<0.0001.
Cells were resuspended in PBS and labelled with Cell Proliferation Dye eFluor 450 (CPD) (eBioscience) at a final concentration of 10 μM at 37° C. for 10 min, kept on ice for 5 min, and washed twice with 10 mL of ice-cold RPMI 1640 10% FCS medium.
To confirm and extend the observation that targeting the BOB1-OCT(s) interaction suppresses effector T cell proliferation efficiently, we cultured CD4^+CD25^− T cells in the presence of anti-CD3/CD28 microbeads and different concentrations of compound 005 for 3 days. […] OCT1 is constitutively expressed in T cells, whereas BOB1 is induced only after activation. […] Therefore, we next determined the consequences of inhibition of the OCT1-BOB1 complex on the expression of Th1-, Th2-, and Th17-associated cytokines during primary and secondary (memory) T-cell responses in vitro (FIGS. 7C-O). […]

Cc1ccc(NC(=O)C2CN(c3nc(NCCCc4ccc(F)cc4)nc(NCCC(=O)O)n3)c3ccccc3O2)cc1Cl (centres unmarked) [compound 005, 3-((4-(2-((3-chloro-4-methylphenyl)carbamoyl)-2,3-dihydro-4H-benzo[b][1,4]oxazin-4-yl)-6-((3-(4-fluorophenyl)propyl)amino)-1,3,5-triazin-2-yl)amino)propanoic acid]
BOB1/OCT1-driven transcription (relative luciferase activity) ([1]; 10 μM in the culture medium): significantly attenuated | suppression of transcriptional activation ([1]; concentration range from 0.5 to 40 μM): dose-dependent manner | inhibition at 5 µM (CD4+CD25- T cells; 5 μM): 18.8 ± 12.5% | inhibition at 10 µM (CD4+CD25- T cells; 10 μM): 50.5 ± 10.2% | inhibition at 15 µM (CD4+CD25- T cells; 15 μM): 77.5 ± 9.2%
